From PubChem BioAssay (NCI)
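Dose response: 5 concentrations. Exposure: 48 h. Format: 96-well plates. Endpoint: linear interpolation; highest concentration if not reached. GI50 = concentration required for 50% inhibition of growth. Definition used: TGI = concentration required for complete inhibition of growth.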

Tests used:
Experiment in all cases: NCI tumour cell line growth inhibition, 48 h
EKVX NSCLC = test system: EKVX NSCLC
SNB-19 CNS = test system: SNB-19 CNS
TK-10 renal = test system: TK-10 renal
MCF7 breast = test system: MCF7 breast
IGROV1 ovarian = test system: IGROV1 ovarian
SK-MEL-2 melanoma = test system: SK-MEL-2 melanoma
CAKI-1 renal = test system: CAKI-1 renal
RPMI-8226 leukemia = test system: RPMI-8226 leukemia
NCI-H226 lung = test system: NCI-H226 lung
HL-60(TB) leukemia = test system: HL-60(TB) leukemia
786-0 renal = test system: 786-0 renal
CCRF-CEM leukemia = test system: CCRF-CEM leukemia
HCT-116 colon = test system: HCT-116 colon
OVCAR-8 ovarian = test system: OVCAR-8 ovarian
NCI-H23 lung = test system: NCI-H23 lung
SF-268 CNS = test system: SF-268 CNS
MALME-3M melanoma = test system: MALME-3M melanoma
MDA-MB-231 breast = test system: MDA-MB-231 breast
A549 NSCLC = test system: A549 NSCLC
SF-295 CNS = test system: SF-295 CNS
SN12C renal = test system: SN12C renal
SK-OV-3 ovarian = test system: SK-OV-3 ovarian
SNB-75 CNS = test system: SNB-75 CNS
NCI-H460 lung = test system: NCI-H460 lung
SK-MEL-5 melanoma = test system: SK-MEL-5 melanoma
HCC-2998 colon = test system: HCC-2998 colon
MOLT-4 leukemia = test system: MOLT-4 leukemia
RXF 393 renal = test system: RXF 393 renal
SK-MEL-28 melanoma = test system: SK-MEL-28 melanoma
UO-31 renal = test system: UO-31 renal
UACC-257 melanoma = test system: UACC-257 melanoma
HT29 colon = test system: HT29 colon
PC-3 prostate = test system: PC-3 prostate
BT-549 breast = test system: BT-549 breast
SW-620 colon = test system: SW-620 colon
UACC-62 melanoma = test system: UACC-62 melanoma
OVCAR-3 ovarian = test system: OVCAR-3 ovarian
MDA-N = test system: MDA-N
SF-539 CNS = test system: SF-539 CNS
M14 melanoma = test system: M14 melanoma
ACHN renal = test system: ACHN renal
LOX IMVI melanoma = test system: LOX IMVI melanoma
K-562 leukemia = test system: K-562 leukemia
MDA-MB-435 = test system: MDA-MB-435
OVCAR-4 ovarian = test system: OVCAR-4 ovarian
COLO 205 colon = test system: COLO 205 colon
HOP-62 NSCLC = test system: HOP-62 NSCLC
HCT-15 colon = test system: HCT-15 colon
OVCAR-5 ovarian = test system: OVCAR-5 ovarian
A498 renal = test system: A498 renal
HS 578T breast = test system: HS 578T breast
DU-145 prostate = test system: DU-145 prostate
HOP-92 NSCLC = test system: HOP-92 NSCLC
KM12 colon = test system: KM12 colon
U251 CNS = test system: U251 CNS
NCI/ADR-RES ovarian = test system: NCI/ADR-RES ovarian
T-47D breast = test system: T-47D breast
SR leukemia = test system: SR leukemia
NCI-H522 lung = test system: NCI-H522 lung

Structure (SMILES): CC(C)=CCC/C(C)=C/CC/C(C)=C/CSc1ccc(Cl)cc1C(=O)O
- TGI (EKVX NSCLC): 37 µM
- TGI (SNB-19 CNS): 34.4 µM
- TGI (TK-10 renal): 37.6 µM
- TGI (MCF7 breast): 32.8 µM
- TGI (IGROV1 ovarian): 34.8 µM
- TGI (SK-MEL-2 melanoma): 28.8 µM
- TGI (CAKI-1 renal): 43.5 µM
- TGI (RPMI-8226 leukemia): 55.6 µM
- TGI (NCI-H226 lung): 36.8 µM
- TGI (HL-60(TB) leukemia): 50.8 µM
- TGI (786-0 renal): 30.8 µM
- TGI (CCRF-CEM leukemia): 48.9 µM
- TGI (HCT-116 colon): 31.6 µM
- TGI (OVCAR-8 ovarian): 42.1 µM
- TGI (NCI-H23 lung): 34.9 µM
- TGI (SF-268 CNS): 32.7 µM
- TGI (MALME-3M melanoma): 38.4 µM
- TGI (MDA-MB-231 breast): 63.4 µM
- TGI (A549 NSCLC): 30.3 µM
- TGI (SF-295 CNS): 31.4 µM
- TGI (SN12C renal): 48 µM
- TGI (SK-OV-3 ovarian): 31.1 µM
- TGI (SNB-75 CNS): 34.3 µM
- TGI (NCI-H460 lung): 32.7 µM
- TGI (SK-MEL-5 melanoma): 44.9 µM
- TGI (HCC-2998 colon): 34.7 µM
- TGI (MOLT-4 leukemia): 49.9 µM
- TGI (RXF 393 renal): 44.6 µM
- TGI (SK-MEL-28 melanoma): 33.9 µM
- TGI (UO-31 renal): 31.4 µM
- TGI (UACC-257 melanoma): 82.2 µM
- TGI (HT29 colon): 37.4 µM
- TGI (PC-3 prostate): 29.7 µM
- TGI (BT-549 breast): 37.5 µM
- TGI (SW-620 colon): 46.9 µM
- TGI (UACC-62 melanoma): 34.7 µM
- TGI (OVCAR-3 ovarian): 30.7 µM
- TGI (MDA-N): 60.3 µM
- TGI (SF-539 CNS): 36.4 µM
- TGI (M14 melanoma): 36.5 µM
- TGI (ACHN renal): 35.9 µM
- TGI (LOX IMVI melanoma): 32 µM
- TGI (K-562 leukemia): 64.9 µM
- TGI (MDA-MB-435): 42.2 µM
- TGI (OVCAR-4 ovarian): 86.8 µM
- TGI (COLO 205 colon): 51.6 µM
- TGI (HOP-62 NSCLC): 28.1 µM
- TGI (HCT-15 colon): 34.7 µM
- TGI (OVCAR-5 ovarian): 36.9 µM
- TGI (A498 renal): 38.7 µM
- TGI (HS 578T breast): 49.7 µM
- TGI (DU-145 prostate): 56 µM
- TGI (HOP-92 NSCLC): 45.2 µM
- TGI (KM12 colon): 32.3 µM
- TGI (U251 CNS): 34.7 µM

Structure (SMILES): Cc1ccccc1NC(=O)c1sc2nc3c(cc2c1N)C(=O)CCC3
- GI50 (NCI/ADR-RES ovarian): 2.23 µM
- TGI (NCI/ADR-RES ovarian): > 100 µM
- GI50 (EKVX NSCLC): 6.82 µM
- TGI (EKVX NSCLC): > 100 µM
- GI50 (SNB-19 CNS): 3.1 µM
- TGI (SNB-19 CNS): > 100 µM
- GI50 (TK-10 renal): 4.05 µM
- TGI (TK-10 renal): > 100 µM
- GI50 (MCF7 breast): 1.58 µM
- TGI (MCF7 breast): > 100 µM
- GI50 (IGROV1 ovarian): 5.26 µM
- TGI (IGROV1 ovarian): > 100 µM
- GI50 (SK-MEL-2 melanoma): 0.548 µM
- TGI (SK-MEL-2 melanoma): > 100 µM
- GI50 (CAKI-1 renal): 6.74 µM
- TGI (CAKI-1 renal): > 100 µM
- GI50 (RPMI-8226 leukemia): 5.29 µM
- TGI (RPMI-8226 leukemia): > 100 µM
- GI50 (NCI-H226 lung): 37.6 µM
- TGI (NCI-H226 lung): > 100 µM
- GI50 (T-47D breast): 4.81 µM
- TGI (T-47D breast): > 100 µM
- GI50 (HL-60(TB) leukemia): 3.1 µM
- TGI (HL-60(TB) leukemia): > 100 µM
- GI50 (786-0 renal): 9.02 µM
- TGI (786-0 renal): > 100 µM
- GI50 (CCRF-CEM leukemia): 2.55 µM
- TGI (CCRF-CEM leukemia): > 100 µM
- GI50 (HCT-116 colon): 3.56 µM
- TGI (HCT-116 colon): > 100 µM
- GI50 (OVCAR-8 ovarian): 4.89 µM
- TGI (OVCAR-8 ovarian): > 100 µM
- GI50 (SR leukemia): 2.93 µM
- TGI (SR leukemia): > 100 µM
- GI50 (NCI-H23 lung): 4.62 µM
- TGI (NCI-H23 lung): > 100 µM
- GI50 (SF-268 CNS): 8.51 µM
- TGI (SF-268 CNS): > 100 µM
- GI50 (MALME-3M melanoma): 3.54 µM
- TGI (MALME-3M melanoma): > 100 µM
- GI50 (MDA-MB-231 breast): 3.98 µM
- TGI (MDA-MB-231 breast): > 100 µM
- GI50 (A549 NSCLC): 2.22 µM
- TGI (A549 NSCLC): > 100 µM
- GI50 (SF-295 CNS): 1.33 µM
- TGI (SF-295 CNS): > 100 µM
- GI50 (SN12C renal): 5.53 µM
- TGI (SN12C renal): > 100 µM
- GI50 (SK-OV-3 ovarian): 2.72 µM
- TGI (SK-OV-3 ovarian): > 100 µM
- GI50 (SNB-75 CNS): 1.66 µM
- TGI (SNB-75 CNS): > 100 µM
- GI50 (NCI-H460 lung): 2.63 µM
- TGI (NCI-H460 lung): 10.6 µM
- GI50 (SK-MEL-5 melanoma): 0.613 µM
- TGI (SK-MEL-5 melanoma): 11.6 µM
- GI50 (HCC-2998 colon): 3.21 µM
- TGI (HCC-2998 colon): > 100 µM
- GI50 (MOLT-4 leukemia): 11.3 µM
- TGI (MOLT-4 leukemia): > 100 µM
- GI50 (RXF 393 renal): 1.62 µM
- TGI (RXF 393 renal): 5.65 µM
- GI50 (SK-MEL-28 melanoma): 1.83 µM
- TGI (SK-MEL-28 melanoma): > 100 µM
- GI50 (UO-31 renal): 34.4 µM
- TGI (UO-31 renal): > 100 µM
- GI50 (UACC-257 melanoma): 1.97 µM
- TGI (UACC-257 melanoma): > 100 µM
- GI50 (HT29 colon): 1.59 µM
- TGI (HT29 colon): 23.7 µM
- GI50 (PC-3 prostate): 3.13 µM
- TGI (PC-3 prostate): > 100 µM
- GI50 (BT-549 breast): 6.58 µM
- TGI (BT-549 breast): > 100 µM
- GI50 (SW-620 colon): 1.83 µM
- TGI (SW-620 colon): > 100 µM
- GI50 (UACC-62 melanoma): 0.999 µM
- TGI (UACC-62 melanoma): > 100 µM
- GI50 (OVCAR-3 ovarian): 1.76 µM
- TGI (OVCAR-3 ovarian): 4.45 µM
- GI50 (SF-539 CNS): 2.13 µM
- TGI (SF-539 CNS): 8.1 µM
- GI50 (M14 melanoma): 2.27 µM
- TGI (M14 melanoma): > 100 µM
- GI50 (NCI-H522 lung): 0.896 µM
- TGI (NCI-H522 lung): 3.5 µM
- GI50 (ACHN renal): 15.8 µM
- TGI (ACHN renal): > 100 µM
- GI50 (LOX IMVI melanoma): 6.71 µM
- TGI (LOX IMVI melanoma): > 100 µM
- GI50 (K-562 leukemia): 0.771 µM
- TGI (K-562 leukemia): > 100 µM
- GI50 (MDA-MB-435): 0.331 µM
- TGI (MDA-MB-435): 1.98 µM
- GI50 (OVCAR-4 ovarian): 6.21 µM
- TGI (OVCAR-4 ovarian): > 100 µM
- GI50 (COLO 205 colon): 2.13 µM
- TGI (COLO 205 colon): 6.69 µM
- GI50 (HOP-62 NSCLC): 7.28 µM
- TGI (HOP-62 NSCLC): > 100 µM
- GI50 (HCT-15 colon): 1.64 µM
- TGI (HCT-15 colon): > 100 µM
- GI50 (OVCAR-5 ovarian): 6.82 µM
- TGI (OVCAR-5 ovarian): > 100 µM
- GI50 (A498 renal): 1.16 µM
- TGI (A498 renal): 4.65 µM
- GI50 (HS 578T breast): 1.71 µM
- TGI (HS 578T breast): 5.56 µM
- GI50 (DU-145 prostate): 2.7 µM
- TGI (DU-145 prostate): 8.41 µM
- GI50 (HOP-92 NSCLC): > 100 µM
- TGI (HOP-92 NSCLC): > 100 µM
- GI50 (KM12 colon): 1.69 µM
- TGI (KM12 colon): > 100 µM
- GI50 (U251 CNS): 1.67 µM
- TGI (U251 CNS): 21.4 µM
